In one assay the test system is EboV.
For `CCCCc1oc2ccccc2c1C(=O)c1cc(I)c(OCCN(CC)CC)c(I)c1` [amiodarone], the anti-EboV activity entry is listed as “weak anti-EboV activity”.

With `CCOC(=O)C1=C(COCCN)NC(C)=C(C(=O)OC)C1c1ccccc1Cl` (stereo not drawn) [amlodipne], the anti-EboV activity result is given as “weak anti-EboV activity”. Still for that read-out and setting: as for `COc1ccc([C@@H]2Sc3ccccc3N(CCN(C)C)C(=O)[C@@H]2OC(C)=O)cc1` [diltiazen], the entry is “weak anti-EboV activity”.

Another assay concerns VSV luc particles bearing the native VSV G glycoprotein. The format is cell-based, vesicular stomatitis virus.
Turning to `CCOc1ccc(S(=O)(=O)N(C)c2ccc(OCC(=O)N(C)C3CCN(C)CC3)cc2)cc1` [compound 6], the “specificity for EboV GP versus VSV G particles” value is listed as “EboV specific”. The same measure, in the same setting: as for `Oc1ccc(/C=N/n2c(-c3ccco3)cs/c2=N\c2ccc(F)cc2F)c(O)c1` [compound 7], the entry is “EboV specific”; as for `COC(=O)c1ccc(-c2ccco2)n1Cc1cccc(F)c1` [compound 8], “EboV specific”.

The record behind these values is patent US9676763B2 (priority 2010, dated 2017).
